#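 Cells were grown in 96-well plates and exposed to each compound for 48 hours at five concentrations; endpoints were interpolated linearly between bracketing concentrations, or set to the highest concentration if not reached. TGI: total growth inhibition.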
# How the values were obtained:
# Assay in all cases: NCI-60 cell line screen, 48 h
# M14 melanoma = system: M14 melanoma
# UACC-62 melanoma = system: UACC-62 melanoma
# DU-145 prostate = system: DU-145 prostate
# HOP-62 NSCLC = system: HOP-62 NSCLC
# HS 578T breast = system: HS 578T breast
# LOX IMVI melanoma = system: LOX IMVI melanoma
# CCRF-CEM leukemia = system: CCRF-CEM leukemia
# HCC-2998 colon = system: HCC-2998 colon
# HOP-92 NSCLC = system: HOP-92 NSCLC
# OVCAR-8 ovarian = system: OVCAR-8 ovarian
# NCI/ADR-RES ovarian = system: NCI/ADR-RES ovarian
# EKVX NSCLC = system: EKVX NSCLC
# SK-OV-3 ovarian = system: SK-OV-3 ovarian
# A498 renal = system: A498 renal
# T-47D breast = system: T-47D breast
# NCI-H522 lung = system: NCI-H522 lung
# SW-620 colon = system: SW-620 colon
# KM12 colon = system: KM12 colon
# OVCAR-3 ovarian = system: OVCAR-3 ovarian
# SK-MEL-5 melanoma = system: SK-MEL-5 melanoma
# HT29 colon = system: HT29 colon
# NCI-H23 lung = system: NCI-H23 lung
# ACHN renal = system: ACHN renal
# K-562 leukemia = system: K-562 leukemia
# MDA-N = system: MDA-N
# PC-3 prostate = system: PC-3 prostate
# RPMI-8226 leukemia = system: RPMI-8226 leukemia
# COLO 205 colon = system: COLO 205 colon
# OVCAR-5 ovarian = system: OVCAR-5 ovarian
# MDA-MB-231 breast = system: MDA-MB-231 breast
# 786-0 renal = system: 786-0 renal
# SNB-19 CNS = system: SNB-19 CNS
# HL-60(TB) leukemia = system: HL-60(TB) leukemia
# U251 CNS = system: U251 CNS
# CAKI-1 renal = system: CAKI-1 renal
# MDA-MB-435 = system: MDA-MB-435
# OVCAR-4 ovarian = system: OVCAR-4 ovarian
# NCI-H460 lung = system: NCI-H460 lung
# SK-MEL-28 melanoma = system: SK-MEL-28 melanoma
# SF-295 CNS = system: SF-295 CNS
# A549 NSCLC = system: A549 NSCLC
# TK-10 renal = system: TK-10 renal
# UO-31 renal = system: UO-31 renal
# IGROV1 ovarian = system: IGROV1 ovarian
# SN12C renal = system: SN12C renal
# MOLT-4 leukemia = system: MOLT-4 leukemia
# RXF 393 renal = system: RXF 393 renal
# SF-539 CNS = system: SF-539 CNS
# UACC-257 melanoma = system: UACC-257 melanoma
# BT-549 breast = system: BT-549 breast
# SK-MEL-2 melanoma = system: SK-MEL-2 melanoma
# SF-268 CNS = system: SF-268 CNS
# MCF7 breast = system: MCF7 breast
# MALME-3M melanoma = system: MALME-3M melanoma
# SNB-75 CNS = system: SNB-75 CNS
# HCT-116 colon = system: HCT-116 colon
# HCT-15 colon = system: HCT-15 colon
# SR leukemia = system: SR leukemia
# NCI-H226 lung = system: NCI-H226 lung
compound,measurement,setting,value
Cc1[nH]c2ccccc2c1/C=N/NC(=O)c1cccc(I)c1,TGI,M14 melanoma,30 µM
same,TGI,UACC-62 melanoma,34.5 µM
same,TGI,DU-145 prostate,92.5 µM
same,TGI,HOP-62 NSCLC,41 µM
same,TGI,HS 578T breast,89.8 µM
same,TGI,LOX IMVI melanoma,31.2 µM
same,TGI,CCRF-CEM leukemia,63.2 µM
same,TGI,HCC-2998 colon,36.1 µM
same,TGI,HOP-92 NSCLC,51.4 µM
same,TGI,OVCAR-8 ovarian,> 100 µM
same,TGI,NCI/ADR-RES ovarian,56 µM
same,TGI,EKVX NSCLC,41.9 µM
same,TGI,SK-OV-3 ovarian,93.5 µM
same,TGI,A498 renal,34.6 µM
same,TGI,T-47D breast,52.9 µM
same,TGI,NCI-H522 lung,63.7 µM
same,TGI,SW-620 colon,> 100 µM
same,TGI,KM12 colon,37.1 µM
same,TGI,OVCAR-3 ovarian,41.2 µM
same,TGI,SK-MEL-5 melanoma,29.1 µM
same,TGI,HT29 colon,63.3 µM
same,TGI,NCI-H23 lung,53.5 µM
same,TGI,ACHN renal,91.3 µM
same,TGI,K-562 leukemia,78.7 µM
same,TGI,MDA-N,52.4 µM
same,TGI,PC-3 prostate,66 µM
same,TGI,RPMI-8226 leukemia,48.4 µM
same,TGI,COLO 205 colon,27 µM
same,TGI,OVCAR-5 ovarian,70.4 µM
same,TGI,MDA-MB-231 breast,57.7 µM
same,TGI,786-0 renal,45.5 µM
same,TGI,SNB-19 CNS,> 100 µM
same,TGI,HL-60(TB) leukemia,57.5 µM
same,TGI,U251 CNS,57 µM
same,TGI,CAKI-1 renal,50.4 µM
same,TGI,MDA-MB-435,35.7 µM
same,TGI,OVCAR-4 ovarian,43.2 µM
same,TGI,NCI-H460 lung,36.1 µM
same,TGI,SK-MEL-28 melanoma,76.3 µM
same,TGI,SF-295 CNS,43.3 µM
same,TGI,A549 NSCLC,85.6 µM
same,TGI,TK-10 renal,87.7 µM
same,TGI,UO-31 renal,61.6 µM
same,TGI,IGROV1 ovarian,75.3 µM
same,TGI,SN12C renal,> 100 µM
same,TGI,MOLT-4 leukemia,60.9 µM
same,TGI,RXF 393 renal,36.3 µM
same,TGI,SF-539 CNS,38.2 µM
same,TGI,UACC-257 melanoma,54.5 µM
same,TGI,BT-549 breast,61.5 µM
same,TGI,SK-MEL-2 melanoma,39.2 µM
same,TGI,SF-268 CNS,> 100 µM
same,TGI,MCF7 breast,61.7 µM
same,TGI,MALME-3M melanoma,65.6 µM
same,TGI,SNB-75 CNS,54.5 µM
same,TGI,HCT-116 colon,51.4 µM
same,TGI,HCT-15 colon,84.5 µM
same,TGI,SR leukemia,44.5 µM
Cc1ccc(NC(=O)/C(Cc2cc(=O)oc3cc(O)ccc23)=N\NC(C)(C)C)cc1C,TGI,M14 melanoma,> 100 µM
same,TGI,UACC-62 melanoma,> 100 µM
same,TGI,DU-145 prostate,> 100 µM
same,TGI,HS 578T breast,> 100 µM
same,TGI,LOX IMVI melanoma,> 100 µM
same,TGI,CCRF-CEM leukemia,> 100 µM
same,TGI,HCC-2998 colon,> 100 µM
same,TGI,HOP-92 NSCLC,> 100 µM
same,TGI,OVCAR-8 ovarian,> 100 µM
same,TGI,NCI/ADR-RES ovarian,> 100 µM
same,TGI,SK-OV-3 ovarian,> 100 µM
same,TGI,A498 renal,> 100 µM
same,TGI,T-47D breast,> 100 µM
same,TGI,SW-620 colon,> 100 µM
same,TGI,KM12 colon,> 100 µM
same,TGI,OVCAR-3 ovarian,> 100 µM
same,TGI,SK-MEL-5 melanoma,> 100 µM
same,TGI,HT29 colon,> 100 µM
same,TGI,NCI-H23 lung,> 100 µM
same,TGI,ACHN renal,> 100 µM
same,TGI,K-562 leukemia,> 100 µM
same,TGI,MDA-N,> 100 µM
same,TGI,PC-3 prostate,> 100 µM
same,TGI,RPMI-8226 leukemia,> 100 µM
same,TGI,COLO 205 colon,> 100 µM
same,TGI,NCI-H226 lung,> 100 µM
same,TGI,MDA-MB-231 breast,> 100 µM
same,TGI,786-0 renal,> 100 µM
same,TGI,SNB-19 CNS,> 100 µM
same,TGI,HL-60(TB) leukemia,> 100 µM
same,TGI,U251 CNS,> 100 µM
same,TGI,CAKI-1 renal,> 100 µM
same,TGI,MDA-MB-435,> 100 µM
same,TGI,OVCAR-4 ovarian,> 100 µM
same,TGI,NCI-H460 lung,> 100 µM
same,TGI,SK-MEL-28 melanoma,> 100 µM
same,TGI,SF-295 CNS,> 100 µM
same,TGI,A549 NSCLC,> 100 µM
same,TGI,UO-31 renal,> 100 µM
same,TGI,SN12C renal,> 100 µM
same,TGI,MOLT-4 leukemia,> 100 µM
same,TGI,RXF 393 renal,> 100 µM
same,TGI,SF-539 CNS,> 100 µM
same,TGI,UACC-257 melanoma,> 100 µM
same,TGI,BT-549 breast,> 100 µM
same,TGI,SK-MEL-2 melanoma,> 100 µM
same,TGI,SF-268 CNS,> 100 µM
same,TGI,MCF7 breast,> 100 µM
same,TGI,HCT-116 colon,> 100 µM
same,TGI,HCT-15 colon,> 100 µM
same,TGI,SR leukemia,> 100 µM
